Source: patent publication US20240366617A1, “NOVEL CRYSTALLINE FORMS OF A NUCLEOSIDE COMPOUND AND SALTS THEREOF” (priority 2021, published 2024)
Values after ≈ are worked out from the molar mass of the structure shown. Like-named read-outs stand apart in the source and are kept apart here.

Key:
[1] = Study on the stability of influence factors (40° C./75% RH open, 60° C. sealed, 7 days; HPLC and XRPD); format: physicochemical; conditions: for Purity at day 7 (Peak area %) 40° C./75% RH: 40° C./75% RH (open); for Purity at day 7 (Peak area %) 40° C./75% RH / Purity at day 7 (Peak area %) 60° C.: 7 days, HPLC; for Purity at day 7 (Peak area %) 60° C.: 60° C. (sealed sample bottle); for physical and chemical stability / purity and crystalline structure: 60° C. and 40° C./75% RH for 7 days; for Purity at day 0 (Peak area %): day 0, HPLC
From the text: X-ray powder diffraction patterns were collected by using a zero-background sample disk on a German Bruker D8 Advance X-ray diffractometer equipped with an automatic sampler. The used radiation source is Cu k α (λ=1.5418 Å), and the light tube voltage is set at 40 KV and the light tube current is set at 40 mA. The divergent slit of X-rays is 0.6 mm. A proper amount of sample was placed in the center of the zero-background sample tray under the environmental condition, the sample was lightly pressed with a clean glass slide to obtain a flat plane, and the zero-background sample rack was fixed. Diffraction analysis of the sample was performed with a scanning step size of 0.02° (2θ) in the range of 3-40° (2θ). The software used for data collection is DIFFRAC.COMMANDER, and the data is analyzed and presented using DIFFRAC.EVA.
The instrument used for liquid chromatography analysis is Agilent HPLC 1260 series,
ATV-014 free base crystalline form I, ATV-014 hydrobromate crystalline form I, and ATV-014 p-toluenesulfonate crystalline form I were taken and placed at 40° C./75% RH (open) and 60° C. (sealed sample bottle) for 7 days. High-performance liquid chromatography and X-ray powder diffraction detection were performed at 0 and 7 days, respectively.

[2] = Solubility study in biological media (FaSSIF, FeSSIF, SGF, water) at 37° C.; format: physicochemical; conditions: for solubility at 0.5 h / solubility at 2 h / solubility at 24 h: thermodynamic from solid
Procedure: According to the results of salt formation screening research, the solubilities of free base crystalline form I and p-toluenesulfonate crystalline form I at 0.5 hours, 2 hours, and 24 hours were measured in FaSSIF, FeSSIF, SGF, and water at 37° C.

[3] = Placement under 40° C./75% RH (open) conditions for one week (hydrochloride); format: physicochemical
[4] = Activity of ATV014 compared to GS-441524
From the text: (§1) The compound ATV014 is a derivative of GS-441524.

[5] = Bioavailability of ATV014 compared to GS-441524
From the text: as §1

[6] = Moisture absorption on placement under RH (open) conditions for one week; format: physicochemical; conditions: for moisture absorption: one week
From the text: • (1) The compound ATV-014 hydrobromate crystalline form I provided herein is placed under 70% RH (open) conditions for one week, the moisture absorption is 0.2%, and under 90% RH (open) conditions for one week, the moisture absorption is 18.8%. • (2) The compound ATV-014 p-toluenesulfonate crystalline form I provided herein is placed under 30% RH (open) conditions for one week, the moisture absorption is 0.4%, and under 90% RH (open) conditions for one week, the moisture absorption is 0.5%.

DVS hygroscopicity test = format: physicochemical
[7] = in vivo in mice, compared with Remdesivir; cited from earlier work
[8] = compared with Remdesivir; cited from earlier work
[9] = after placement under 30% RH and 90% RH (open) for one week

Row | Structure (SMILES) | Purity at day 7 (Peak area %) 40° C./75% RH [1] | Purity at day 7 (Peak area %) 60° C. [1] [%] | physical and chemical stability [1] | purity and crystalline structure [1] | Purity at day 0 (Peak area %) [1] [%] | pH (solution pH) ([2]; FaSSIF, pH 6.45, 0.5 h) | pH (solution pH) ([2]; FaSSIF, pH 6.45, 2 h) | pH (solution pH) ([2]; FaSSIF, pH 6.45, 24 h) | pH (solution pH) ([2]; FeSSIF, pH 4.95, 0.5 h) | pH (solution pH) ([2]; FeSSIF, pH 4.95, 2 h) | pH (solution pH) ([2]; FeSSIF, pH 4.95, 24 h) | pH (solution pH) ([2]; SGF, pH 1.24, 0.5 h) | pH (solution pH) ([2]; SGF, pH 1.24, 2 h) | pH (solution pH) ([2]; SGF, pH 1.24, 24 h) | pH (solution pH) ([2]; water, pH 5.53, 0.5 h) | pH (solution pH) ([2]; water, pH 5.53, 2 h) | pH (solution pH) ([2]; water, pH 5.53, 24 h) | moisture absorption ([6]; 90% RH (open)) [%] | hygroscopicity (DVS results) (DVS hygroscopicity test) | solid form during / after the DVS test (DVS hygroscopicity test) | also measured
1 | N#C[C@@]1(c2ccc3c(N)ncnn23)O[C@H](COC(=O)C2CCCCC2)[C@@H](O)[C@H]1O [ATV-014 free base crystalline form I] | 98.09% | 98.10 | good | remained unchanged | 98.12 | 6.45 | 6.44 | 6.58 | 4.76 | 4.74 | 4.96 | 0.95 | 0.9 | 1.26 | 7.24 | 6.45 | 6.5 |  |  |  | solubility ([2]; SGF, 37° C., 0.5-24 h, medium not named in the sentence for the p-toluenesulfonate): 2500 to 2900 µg/mL; solubility at 0.5 h ([2]; simulated gastric fluid, SGF, pH 1.24, 0.5 h, 37° C.): 2480 µg/mL (≈ 6180 µM); solubility at 2 h ([2]; simulated gastric fluid, SGF, pH 1.24, 2 h, 37° C.): 2560 µg/mL (≈ 6380 µM); solubility at 24 h ([2]; simulated gastric fluid, SGF, pH 1.24, 24 h, 37° C.): 2860 µg/mL (≈ 7120 µM); solubility at 0.5 h ([2]; FaSSIF, pH 6.45, 0.5 h, 37° C.): 7 µg/mL (≈ 17.4 µM); solubility at 2 h ([2]; FaSSIF, pH 6.45, 2 h, 37° C.): 10 µg/mL (≈ 24.9 µM); solubility at 24 h ([2]; FaSSIF, pH 6.45, 24 h, 37° C.): 21 µg/mL (≈ 52.3 µM); solubility at 0.5 h ([2]; FeSSIF, pH 4.95, 0.5 h, 37° C.): 14 µg/mL (≈ 34.9 µM); solubility at 2 h ([2]; FeSSIF, pH 4.95, 2 h, 37° C.): 19 µg/mL (≈ 47.3 µM); solubility at 24 h ([2]; FeSSIF, pH 4.95, 24 h, 37° C.): 20 µg/mL (≈ 49.8 µM); solubility at 0.5 h ([2]; water, pH 5.53, 0.5 h, 37° C.): 5 µg/mL (≈ 12.5 µM); solubility at 2 h ([2]; water, pH 5.53, 2 h, 37° C.): 6 µg/mL (≈ 14.9 µM); solubility at 24 h ([2]; water, pH 5.53, 24 h, 37° C.): 5 µg/mL (≈ 12.5 µM)
2 | Cl.N#C[C@@]1(c2ccc3c(N)ncnn23)O[C@H](COC(=O)C2CCCCC2)[C@@H](O)[C@H]1O [ATV-014 hydrochloride crystalline form] |  |  |  |  |  |  |  |  |  |  |  |  |  |  |  |  |  |  |  |  | crystalline structure and chemical purity [3]: have not changed; physical and chemical stability [3]: good
3 | N#C[C@@]1(c2ccc3c(N)ncnn23)O[C@H](COC(=O)C2CCCCC2)[C@@H](O)[C@H]1O [ATV014] |  |  |  |  |  |  |  |  |  |  |  |  |  |  |  |  |  |  |  |  | activity [4]: better; bioavailability [5]: better
4 | Br.N#C[C@@]1(c2ccc3c(N)ncnn23)O[C@H](COC(=O)C2CCCCC2)[C@@H](O)[C@H]1O [ATV-014 hydrobromide crystalline form I] | Liquefaction, | 99.57 |  |  | 99.46 |  |  |  |  |  |  |  |  |  |  |  |  | 18.8 | has hygroscopicity | transforms into an amorphous glassy solid | state of the sample ([1]; 40° C./75% RH for 7 days): the sample liquefies; purity and crystalline form ([1]; 60° C. for 7 days): remained unchanged; moisture absorption ([6]; 70% RH (open)): 0.2%; hygroscopic weight gain (DVS hygroscopicity test; 70% RH, after equilibrating for 30 to 120 minutes): 0.2%; hygroscopic weight gain (DVS hygroscopicity test; 90% RH): 18.8%
5 | Cc1ccc(S(=O)(=O)O)cc1.N#C[C@@]1(c2ccc3c(N)ncnn23)O[C@H](COC(=O)C2CCCCC2)[C@@H](O)[C@H]1O.O | 98.71% | 98.62 | good | remained unchanged | 98.60 | 5.7 | 5.67 | 5.85 | 4.65 | 4.62 | 4.83 | 0.69 | 0.70 | 1.20 | 2.05 | 2.07 | 2.43 | 0.5 | slight hygroscopicity | no change in the crystalline structure | solubility [2]: higher than 5 mg/mL; solubility in water relative to that of free base [2]: 30 times; solubility ([2]; pH 1.24): >5000 µg/mL; XPRD (solid form of the residue) ([2]; pH 4.95): free base; XPRD (solid form of the residue) ([2]; pH 5.53): free base; XPRD (solid form of the residue) ([2]; pH 6.45): free base; moisture absorption ([6]; 30% RH (open)): 0.4%; crystalline structure and chemical purity [6, 9]: have not changed; physical and chemical stability [6, 9]: good; hygroscopic weight gain (DVS hygroscopicity test; 90% RH): 0.5%
6 | N#C[C@@]1(c2ccc3c(N)ncnn23)O[C@H](CO)[C@@H](O)[C@H]1O [GS-441524] |  |  |  |  |  |  |  |  |  |  |  |  |  |  |  |  |  |  |  |  | antiviral effect [7]: superior to that of Remdesivir; safety [8]: better safety
